{"source": "patent US20190275169A1", "about": "“TARGETED IMMUNOSUPPRESSION FOR OPTOGENETIC INTERVENTION” (Circuit Therapeutics, Inc., priority 2018, published 2019)", "tested_on": "light responsive excitatory opsin protein ChR2 delivered virally via AAV and expressed in the sensory nerve of a mouse", "assay": "Light-responsiveness over time after AAV delivery of ChR2 to the sensory nerve, immunosuppressant paradigms versus saline (FIG. 2A-2I)", "type": "in vivo", "conditions": "drug paradigm and schedule as in FIG. 1; light approx. 450 nm", "source_text": "Referring to FIG. 1, various drug groupings are listed (2) which have been known to modulate the immune system, including cyclosporine (“Cyc”), cyclosporine+mycophenolate mofetil (“MMF”), dexamethasone, rapamycin in various dosage configurations, rapamycin+dexamethasone+FK506 (also known as “tacrolimus”; an immunosuppressive drug used mainly after organ transplant to lower rejection risk), and metformin (a medication utilized in treating diabetes and polycystic ovary syndrome which also has been inculcated in immune suppression). Each of these listed drugs has previously been approved by the U.S. F.D.A. for different indications, and the depicted drug schedules associated with each grouping feature dosing and scheduling information that previously has been published in different treatment paradigms, such as for cardiovascular or transplant rejection scenarios.\nThus, referring again to the table (2) of FIG. 1, for cyclosporine, a subcutaneous (or “subQ” or “SQ”) regime is listed, wherein cyclosporine is injected subcutaneously for one week prior to injection of genetic material, and then every two days after, as is a cyclosporine+MMF combination (noted as “Cyc+MMF”) which has been used with success, for example, in clinical trials with adeno associated virus (“AAV”) gene therapies; the term “I.P.” or “i.p.” refers to intraperitoneal injection. […]"}
{"smiles": "CN(C)C(=N)N=C(N)N", "note": "[metformin]", "values": [{"measurement": "effect on proportion of animals still exhibiting light-responsiveness versus saline", "result": "does not seem to have a significant impact"}]}
